Data set [1] has as its target T1, Cytochrome P450 11B1, mitochondrial (Homo sapiens, UniProt P15538).
T1 sequence (P15538 whole entry): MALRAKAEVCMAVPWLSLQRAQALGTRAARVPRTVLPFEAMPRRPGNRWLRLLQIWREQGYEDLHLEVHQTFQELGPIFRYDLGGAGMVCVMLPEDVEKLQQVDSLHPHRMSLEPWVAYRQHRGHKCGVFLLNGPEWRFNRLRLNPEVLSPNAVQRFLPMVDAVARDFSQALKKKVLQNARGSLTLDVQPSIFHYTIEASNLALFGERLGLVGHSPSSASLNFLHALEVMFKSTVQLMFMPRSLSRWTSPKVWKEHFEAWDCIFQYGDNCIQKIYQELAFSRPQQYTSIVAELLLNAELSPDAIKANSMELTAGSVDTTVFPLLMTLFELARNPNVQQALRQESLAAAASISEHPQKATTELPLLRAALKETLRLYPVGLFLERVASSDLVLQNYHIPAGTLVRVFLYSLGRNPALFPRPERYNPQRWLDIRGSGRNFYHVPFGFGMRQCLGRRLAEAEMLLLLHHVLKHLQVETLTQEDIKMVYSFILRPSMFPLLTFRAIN
Briefly: Inhibition of human CYP11B1 expressed in Chinese hamster V79 MZh cells using [14C]-deoxycorticosteron as substrate measured after 6 hrs by phosphoimager analysis. Format: ADME, cell-based.

Data set [2] concerns the target T2, Cytochrome P450 11B2, mitochondrial (Homo sapiens, UniProt P19099).
T2 sequence (P19099 whole entry): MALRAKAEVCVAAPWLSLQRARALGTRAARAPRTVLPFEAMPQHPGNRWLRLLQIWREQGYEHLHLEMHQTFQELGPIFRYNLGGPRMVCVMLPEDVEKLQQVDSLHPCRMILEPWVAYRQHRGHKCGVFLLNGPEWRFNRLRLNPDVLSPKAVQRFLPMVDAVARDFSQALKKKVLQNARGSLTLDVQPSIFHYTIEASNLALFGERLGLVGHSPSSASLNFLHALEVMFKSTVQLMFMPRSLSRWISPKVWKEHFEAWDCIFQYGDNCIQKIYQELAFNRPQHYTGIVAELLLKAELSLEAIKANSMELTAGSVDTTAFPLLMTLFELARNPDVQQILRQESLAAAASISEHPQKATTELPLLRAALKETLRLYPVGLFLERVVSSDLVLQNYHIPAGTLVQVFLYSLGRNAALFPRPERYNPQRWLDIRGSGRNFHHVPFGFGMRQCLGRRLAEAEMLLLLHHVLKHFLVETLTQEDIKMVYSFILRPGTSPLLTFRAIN
Briefly: Inhibition of human CYP11B2 expressed in Chinese hamster V79 MZh cells using [14C]-deoxycorticosteron as substrate measured after 6 hrs by phosphoimager analysis. Format: ADME, cell-based.

Data set [3] in a line: Selectivity ratio of IC50 for inhibition of human CYP11B2 to IC50 for inhibition of human CYP11B1. The format is ADME.

The record followed here is ChEMBL document CHEMBL5126611, “Design, Synthesis, and Biological Evaluations of Pyridyl 4,5,6,7-Tetrahydro-4,7-Methanobenzo[d]isoxazoles as Potent and Selective Inhibitors of 11β-Hydroxylase” (J Med Chem, 2022).

Broadly, the IC50 is the concentration needed to halve the response being measured. Take `O=C(Nc1ccccc1F)[C@]12ON=C(c3cccnc3)[C@H]1[C@@H]1CC[C@H]2C1`: the IC50 in data set [1] turned out to be 0.135 µM; in data set [2], 5.75 µM. Besides, the “Ratio IC50” value in data set [3] came to 43.

Take `O=C(Nc1ccc2[nH]ncc2c1)[C@]12ON=C(c3cncc(Br)c3)[C@H]1[C@@H]1CC[C@H]2C1`: the IC50 was 0.031 µM in data set [1] and 0.918 µM in data set [2]. The “Ratio IC50” value in data set [3] is 30.

As for `O=C(Nc1ccc(F)cc1)[C@]12ON=C(c3cccnc3)[C@H]1[C@@H]1CC[C@H]2C1`, the IC50 in data set [1] was determined as 0.057 µM; in data set [2], 2.99 µM. Further, the “Ratio IC50” value in data set [3] was determined as 53.

Turning to `CN(C(=O)[C@]12ON=C(c3cccnc3)[C@H]1[C@@H]1CC[C@H]2C1)c1ccccc1`, the IC50 in data set [1] was 0.183 µM; in data set [2] it was 4.25 µM. Further, the “Ratio IC50” value in data set [3] is 23.

Consider `O=C(Nc1cnc2[nH]ccc2c1)[C@]12ON=C(c3cccnc3)[C@H]1[C@@H]1CC[C@H]2C1`, for which the results for the IC50 in data set [1] and in data set [2] were 0.017 µM and 1.65 µM, respectively. In data set [3], the “Ratio IC50” value is reported as 97.

Consider `O=C(Nc1cccc(Cl)c1Cl)[C@]12ON=C(c3cccnc3)[C@H]1[C@@H]1CC[C@H]2C1`, for which the IC50 turned out to be 0.157 µM in data set [1] and 5.12 µM in data set [2]. Besides, the “Ratio IC50” value in data set [3] is on record as 33.

On to `Cc1cccc(NC(=O)[C@]23ON=C(c4cccnc4)[C@H]2[C@@H]2CC[C@H]3C2)c1`, for which the IC50 in data set [1] came to 0.153 µM; in data set [2], 9.64 µM. For the same compound, the “Ratio IC50” value in data set [3] is on record as 63.

On to `N#Cc1cccc(NC(=O)[C@]23ON=C(c4cccnc4)[C@H]2[C@@H]2CC[C@H]3C2)c1`, for which the IC50 in data set [1] was 0.035 µM; in data set [2], 2.18 µM. Further, the “Ratio IC50” value in data set [3] is recorded as 62.

For `O=C(Nc1ccc2[nH]ncc2c1)[C@]12ON=C(c3cncc(-c4cccc(F)c4)c3)[C@H]1[C@@H]1CC[C@H]2C1`, the results for the IC50 in data set [1] and in data set [2] were 0.008 µM and 0.412 µM, respectively. The “Ratio IC50” value in data set [3] came out at 52.

For the compound `O=C(Nc1cccc(F)c1)[C@]12ON=C(c3cccnc3)[C@H]1[C@@H]1CC[C@H]2C1`, the IC50 in data set [1] is 0.049 µM; in data set [2], 2.84 µM. Moreover, the “Ratio IC50” value in data set [3] was 58.

As for `O=C(Nc1ccc2[nH]ncc2c1)[C@]12ON=C(c3cncc(-c4ccc(F)cc4)c3)[C@H]1[C@@H]1CC[C@H]2C1`, the IC50 came out at 0.006 µM in data set [1] and 0.113 µM in data set [2]. The “Ratio IC50” value in data set [3] worked out at 19.

Take `O=C(Nc1nc2ccccc2[nH]1)[C@]12ON=C(c3cccnc3)[C@H]1[C@@H]1CC[C@H]2C1`: the IC50 came out at 0.106 µM in data set [1] and 2.94 µM in data set [2]. Moreover, the “Ratio IC50” value in data set [3] amounted to 28.

On to `O=C(Nc1cccc(F)n1)[C@]12ON=C(c3cccnc3)[C@H]1[C@@H]1CC[C@H]2C1`, for which the results for the IC50 in data set [1] and in data set [2] were 0.086 µM and 4.01 µM, respectively. Also, the “Ratio IC50” value in data set [3] was 47.

Turning to `COc1cccc(-c2cncc(C3=NO[C@]4(C(=O)Nc5ccc6[nH]ncc6c5)[C@H]5CC[C@H](C5)[C@H]34)c2)c1`, the half-maximal inhibitory concentration (IC50) in data set [1] was 0.015 µM; in data set [2], 0.477 µM. Moreover, in data set [3], the “Ratio IC50” value is on record as 32.

Consider `N#Cc1ccc(NC(=O)[C@]23ON=C(c4cccnc4)[C@H]2[C@@H]2CC[C@H]3C2)cc1`, for which the values for the IC50 in data set [1] and in data set [2] were 0.046 µM and 3.8 µM, respectively. The “Ratio IC50” value in data set [3] stood at 83.

Consider `Cc1ccncc1NC(=O)[C@]12ON=C(c3cccnc3)[C@H]1[C@@H]1CC[C@H]2C1`, for which the values for the IC50 in data set [1] and in data set [2] were 0.115 µM and 4.45 µM, respectively. The “Ratio IC50” value in data set [3] turned out to be 39.

For the compound `Nc1ccccc1NC(=O)[C@]12ON=C(c3cccnc3)[C@H]1[C@@H]1CC[C@H]2C1`, the IC50 in data set [1] is 0.138 µM; in data set [2], 4.31 µM. Further, the “Ratio IC50” value in data set [3] turned out to be 31.

With `Cc1ccc(NC(=O)[C@]23ON=C(c4cccnc4)[C@H]2[C@@H]2CC[C@H]3C2)cc1`, the IC50 in data set [1] is 0.128 µM; in data set [2], 6.22 µM. Besides, the “Ratio IC50” value in data set [3] is 49.

With `O=C(Nc1ccc2[nH]ncc2c1)[C@]12ON=C(c3cncc(-c4ccsc4)c3)[C@H]1[C@@H]1CC[C@H]2C1`, the results for the concentration for half-maximal inhibition (IC50) in data set [1] and in data set [2] were 0.037 µM and 1.43 µM, respectively. Further, in data set [3], the “Ratio IC50” value was 39.

Take `Cc1ccccc1NC(=O)[C@]12ON=C(c3cccnc3)[C@H]1[C@@H]1CC[C@H]2C1`: the IC50 in data set [1] was found to be 0.189 µM; in data set [2] it was 9.77 µM. Besides, in data set [3], the “Ratio IC50” value came to 52.

Regarding `O=C(Nc1ccccc1)[C@]12ON=C(c3cccnc3)[C@H]1[C@@H]1CC[C@H]2C1`, the IC50 is 0.167 µM in data set [1] and 5.94 µM in data set [2]. For the same compound, the “Ratio IC50” value in data set [3] is 36.

Regarding `O=C(Nc1ccc2[nH]ncc2c1)[C@]12ON=C(c3cncc(-c4ccoc4)c3)[C@H]1[C@@H]1CC[C@H]2C1`, the IC50 in data set [1] is 0.046 µM; in data set [2] it was 0.796 µM. For the same compound, in data set [3], the “Ratio IC50” value came to 17.

As to `O=C(Nc1ccc(Cl)cc1)[C@]12ON=C(c3cccnc3)[C@H]1[C@@H]1CC[C@H]2C1`, the IC50 in data set [1] turned out to be 0.083 µM; in data set [2], 6.72 µM. In addition, the “Ratio IC50” value in data set [3] is given as 81.

`COc1ccc(NC(=O)[C@]23ON=C(c4cccnc4)[C@H]2[C@@H]2CC[C@H]3C2)cc1`: the IC50 amounted to 0.079 µM in data set [1] and 4.02 µM in data set [2]. In data set [3], the “Ratio IC50” value was 51.

With `N#Cc1ccc(-c2cncc(C3=NO[C@]4(C(=O)Nc5ccc6[nH]ncc6c5)[C@H]5CC[C@H](C5)[C@H]34)c2)cc1`, the IC50 in data set [1] amounted to 0.002 µM; in data set [2], 0.057 µM. Further, the “Ratio IC50” value in data set [3] worked out at 28.

In the case of `O=C(Nc1ccc2[nH]ncc2c1)[C@]12ON=C(c3cncc(-c4cccc(C(F)(F)F)c4)c3)[C@H]1[C@@H]1CC[C@H]2C1`, the values for the concentration for half-maximal inhibition (IC50) in data set [1] and in data set [2] were 0.017 µM and 0.398 µM, respectively. Further, in data set [3], the “Ratio IC50” value is 23.

As to `O=C(Nc1ccc([N+](=O)[O-])cc1)[C@]12ON=C(c3cccnc3)[C@H]1[C@@H]1CC[C@H]2C1`, the IC50 is 0.096 µM in data set [1] and 5.59 µM in data set [2]. Also, the “Ratio IC50” value in data set [3] amounted to 58.

As for `O=C(Nc1cccc(Cl)c1)[C@]12ON=C(c3cccnc3)[C@H]1[C@@H]1CC[C@H]2C1`, the values for the IC50 in data set [1] and in data set [2] were 0.097 µM and 6.67 µM, respectively. In data set [3], the “Ratio IC50” value worked out at 69.

`O=C(Nc1ncccn1)[C@]12ON=C(c3cccnc3)[C@H]1[C@@H]1CC[C@H]2C1`: the IC50 in data set [1] came to 0.179 µM; in data set [2] it was 7.71 µM. Also, in data set [3], the “Ratio IC50” value turned out to be 43.

Take `O=C(Nc1ccc2cc[nH]c2c1)[C@]12ON=C(c3cccnc3)[C@H]1[C@@H]1CC[C@H]2C1`: the IC50 in data set [1] turned out to be 0.025 µM; in data set [2], 2.07 µM. Also, the “Ratio IC50” value in data set [3] is on record as 82.

`O=C(Nc1ccc2[nH]ccc2c1)[C@]12ON=C(c3cccnc3)[C@H]1[C@@H]1CC[C@H]2C1`: the IC50 in data set [1] came to 0.022 µM; in data set [2], 2.28 µM. For the same compound, in data set [3], the “Ratio IC50” value amounted to 103.

In the case of `COc1cccc(NC(=O)[C@]23ON=C(c4cccnc4)[C@H]2[C@@H]2CC[C@H]3C2)c1`, the figures for the IC50 in data set [1] and in data set [2] were 0.032 µM and 2.39 µM, respectively. The “Ratio IC50” value in data set [3] came to 75.

For the compound `COc1ccccc1NC(=O)[C@]12ON=C(c3cccnc3)[C@H]1[C@@H]1CC[C@H]2C1`, the concentration for half-maximal inhibition (IC50) in data set [1] worked out at 0.113 µM; in data set [2] it was 5.95 µM. Moreover, the “Ratio IC50” value in data set [3] came out at 53.

`N#Cc1cccc(-c2cncc(C3=NO[C@]4(C(=O)Nc5ccc6[nH]ncc6c5)[C@H]5CC[C@H](C5)[C@H]34)c2)c1`: the figures for the IC50 in data set [1] and in data set [2] were 0.012 µM and 0.329 µM, respectively. Also, the “Ratio IC50” value in data set [3] is 27.

In the case of `O=C(Nc1cccc([N+](=O)[O-])c1)[C@]12ON=C(c3cccnc3)C1[C@@H]1CCC2C1` (single isomer, unassigned), the IC50 in data set [1] amounted to 0.065 µM; in data set [2] it was 2.6 µM. The “Ratio IC50” value in data set [3] is 41.
